Data published in publication PMC6268061, “Investigation of the Biological Properties of (Hetero)Aromatic Thiosemicarbazones” (Molecules, 2012).
Read-outs that look alike come from different tables or passages of the source.

Tests used:
[1] = system: Trichophyton mentagrophytes 445; test: In vitro antifungal susceptibility, broth microdilution; type: cell-based; conditions: read-out: MIC (IC50) TM
[2] = system: Aspergillus fumigatus 231; test: as above; type: cell-based; conditions: read-out: MIC (IC50) AF
[3] = system: Candida albicans ATCC 44859; test: as above; type: cell-based; conditions: read-out: MIC (IC80) CA
[4] = Lipophilicity determination using RP-HPLC (capacity factor, log k); type: physicochemical; conditions: C18, MeOH 55%/H2O 45%
From the text: Reversed phase high performance liquid chromatography (RP-HPLC) methods have become popular and are widely used for lipophilicity measurements. The general procedure is the measurement of the directly accessible retention time under isocratic conditions using varying amounts of methanol as an organic modifier in the mobile phase using RP columns and calculating the logarithm of the capacity factors (log k). Log k is the logarithm of the capacity factors in chromatographic approaches that is related to the partitioning of a compound between a mobile and a (pseudo-)stationary phase. Log k is used as the lipophilicity index converted to log P scale.
A Waters Alliance 2695 XE HPLC separation module and a Waters Photodiode Array Detector 2996 (Waters Corp., Milford, MA, USA) were used. A Symmetry® C18 5 μm, 4.6 × 250 mm, Part No. WAT054275 (Waters Corp.) chromatographic column was used. The HPLC separation process was monitored using Empower™ 2 Chromatography Data Software, Waters 2009 (Waters Corp.). A mixture of MeOH p.a. (55%) and H2O-HPLC-Mili-Q Grade (45%) was used as a mobile phase. The total flow of the column was 0.9 mL/min, injection volume 30 μL, column temperature 30 °C and sample temperature 10 °C. A detection wavelength of 210 nm was chosen. A KI methanolic solution was used for the determination of dead time (tD). Retention times (tR) were measured in minutes. The capacity factors k were calculated using the Empower™ 2 Chromatography Data Software according to the formula k = (tR − tD)/tD, where tR is the retention time of the solute, whereas tD denotes the dead time obtained using an unretained analyte. Log k, calculated from the capacity factor k, is used as the lipophilicity index converted to log P scale.

Candida krusei ATCC 6258 = test: In vitro antifungal susceptibility, broth microdilution; type: cell-based; conditions: Pichia kudriavzevii, read-out: MIC (IC80) CK
Candida tropicalis 156 = test: as above; type: cell-based; conditions: read-out: MIC (IC80) CT
Absidia corymbifera 272 = test: as above; type: cell-based; conditions: read-out: MIC (IC50) AC
Candida glabrata 20/I = test: as above; type: cell-based; conditions: Nakaseomyces glabratus, read-out: MIC (IC80) CG
[5] = system: HCT-116 human colon cancer cells (p53 wild type); parameters: method as in PMID 22858101; conditions: footnote 3: anticancer activity described elsewhere ref [34],[44]; cited from earlier work
[6] = system: Trichosporon beigelii 1188; test: In vitro antifungal susceptibility, broth microdilution; type: cell-based; conditions: read-out: MIC (IC80) TB
From the text: The broth microdilution test was used for the assessment of the in vitro antifungal activity of the synthesized compounds against Candida albicans ATCC 44859 (CA), Candida tropicalis 156 (CT), Candida krusei ATCC 6258 (CK), Candida glabrata 20/I (CG), Trichosporon beigelii 1188 (TB), Aspergillus fumigatus 231 (AF), Absidia corymbifera 272 (AC), and Trichophyton mentagrophytes 445 (TM). Fluconazole (FLU) was used as the standard since it is a clinically used antimycotic drug. The procedure was performed using a twofold dilution of the compounds in RPMI 1640 (Sevapharma a.s., Prague, Czech Republic) buffered to pH 7.0 with […] of 3-morpholino-propane-1-sulfonic acid (MOPS, Sigma, Prague, Czech Republic). The final concentrations of the compounds ranged from 500 to 0.975 μmol/L. Drug-free controls were included. The determination of minimum inhibitory concentration (MIC) was performed according to the Clinical and Laboratory Standards Institute (CLSI, formerly NCCLS) reference protocol M27-A2 for yeasts (IC80 value) and M38-A for moulds (IC50 value). IC80 and IC50 were defined as an 80% resp. 50% or greater reduction in growth in comparison with the control. The values of MICs were determined after 24 and 48 h of static incubation at 35 °C. The final MICs for T. mentagrophytes, were determined after 72 and 120 h of incubation.

[7] = system: photosynthetic electron transport (PET) in spinach chloroplasts; test: Inhibition of photosynthetic electron transport (PET) in spinach chloroplasts; type: biochemical, Spinacia oleracea L.; conditions: DCPIP photoreduction
Description: Chloroplasts were prepared from spinach (Spinacia oleracea L.) according to Masarovicova and Kralova. The inhibition of the photosynthetic electron transport (PET) in spinach chloroplasts was determined spectrophotometrically (Genesys 6, Thermo Fisher Scientific, Waltham, MA, USA) using an artificial electron acceptor 2,6-dichlorophenol-indophenol (DCIPP) according to Kralova et al. and the rate of photosynthetic electron transport was monitored as a photoreduction of DCPIP. The measurements were carried out in a phosphate buffer (0.02 mol/L, pH 7.2) containing sucrose (0.4 mol/L), MgCl2 (0.005 mol/L) and NaCl (0.015 mol/L). The chlorophyll content was 30 mg/L in these experiments and the samples were irradiated (~100 W/m^2 with 10 cm distance) with a halogen lamp (250 W) using a 4 cm water filter to prevent warming of the samples (suspension temperature 22 °C). The compounds studied were dissolved in DMSO due to their limited water solubility. […] The inhibitory efficiency of the compounds studied was expressed by IC50 values, i.e., by the molar concentration of the compounds that caused a 50% decrease in the oxygen evolution rate relative to the untreated control.

[8] = system: HCT-116 human colon cancer cells (p53 wild type); test: In vitro antiproliferative activity, MTS assay; type: cell-based; conditions: HCT-116, 72 h incubation, MTS, read-out: HCT-116 IC50
Description: The antiproliferative activity of all of the compounds was examined against the human colon cancer (HCT-116) cell line using an MTS assay. The HCT-116 p53 wild type cell line was chosen on the basis of our former experience and some results on the activity of quinoline-based thiosemicarbazones that was published recently. Namely, compounds 4a–l have been tested previously for their wide-ranging anticancer activity. The antiproliferative activity of the compounds evaluated was assessed using Doxorubicin as a reference compound. In general, quinoline-based thiosemicarbazones 4 seem to have a much better anticancer activity than halogenophenyl compounds 3. Thus, the quinoline nucleus can be defined as being crucial for antiproliferative activity. A more detailed analysis of the anticancer activity of quinoline-based thiosemicarbazone is available. […] Nevertheless, some more general conclusions can be drawn from the gathered data. […] The free amino group or substitution pattern with small substituents such as methyl or ethyl are favorable for activity. According to our former results the chelating ability of the compounds may be one of the prerequisites of the antiproliferative activity. In this study we have measured the UV-VIS spectra of the compounds in presence of various concentration of Fe^3+ cations to observe its chelating potency (supplementary material). […] However as 4j give also two points at 330 and 385 nm, iron chelating ability should be regarded only as one of the factor influencing the biological activity.
The human colon cancer cell line HCT116 with the wild type p53 gene (p53^+/+) were obtained from Maria Sklodowska-Curie Memorial Cancer Center in Gliwice, Poland. Briefly, the cells were seeded in 96-well plates (3 × 10^3 cells/well) in cellular proliferation assays 24 h before the addition of the chelators. The assay was performed following a 72 h incubation with varying concentrations of the agents. Each compound was tested in triplicate in a single experiment with each experiment being repeated 3 times. After 72 h incubation with the compounds being investigated, 20 µL of MTS solution was added to each well (100 µL) and incubated for 1 h at 37 °C. The optical densities of the samples were analyzed at 490 nm. Results were expressed as a percentage of the control. The inhibitory concentration (IC50) was defined as the compound concentration necessary to reduce the absorbance to 50% of the untreated control.

[9] = Trichophyton mentagrophytes, 445, 72 h and 120 h, only one value presented (inactive)
[10] = Aspergillus fumigatus, 231, 24 h and 48 h, only one value presented (inactive)
[11] = ATCC44859, 24 h and 48 h, only one value presented (inactive)
[12] = ATCC6258, 24 h and 48 h, only one value presented (inactive)
[13] = Candida tropicalis, 156, 24 h and 48 h, only one value presented (inactive)
[14] = Lichtheimia corymbifera, 272, 24 h and 48 h, only one value presented (inactive)
[15] = 24 h and 48 h, only one value presented (inactive)
[16] = Trichosporon beigelii, 1188, 24 h and 48 h, only one value presented (inactive)

Row | Structure (SMILES) | IC50 [1, 9] [µM] | IC50 [2, 10] [µM] | MIC [3, 11] [µM] | log k [4] | MIC (Candida krusei ATCC 6258; [12]) [µM] | MIC (Candida tropicalis 156; [13]) [µM] | IC50 (Absidia corymbifera 272; [14]) [µM] | MIC (Candida glabrata 20/I; [15]) [µM] | IC50 [5] [µM] | MIC [6, 16] [µM] | IC50 [7] [µM] | IC50 [8] [µM] | also measured
1 | NC(=S)N/N=C/c1cccc(Cl)c1Cl [Compound 3a, (E)-2-(2,3-Dichlorobenzylidene)hydrazinecarbothioamide] | > 125 | > 125 | > 125 | 0.6892 | > 125 | > 125 | > 125 | > 125 | 41.5 ± 1.7 | > 125 | – | – | –
2 | CCNC(=S)N/N=C/c1cccc(Cl)c1Cl [Compound 3d, (E)-2-(2,3-Dichlorobenzylidene)-N-ethylhydrazinecarbothioamide] | > 500 | > 500 | > 500 | 0.7958 | > 500 | > 500 | > 500 | > 500 | 58.5 ± 0.2 | > 500 | – | – | –
3 | NC(=S)N/N=C/c1ccc(Cl)c(Cl)c1 [Compound 3f, (E)-2-(3,4-Dichlorobenzylidene)hydrazinecarbothioamide] | > 500 | > 500 | > 500 | 0.6974 | > 500 | > 500 | > 500 | > 500 | – | > 500 | 283 | 46 ± 0.9 | –
4 | CNC(=S)N/N=C/c1ccc(Cl)c(Cl)c1 [Compound 3g, (E)-2-(3,4-Dichlorobenzylidene)-N-methylhydrazinecarbothioamide] | > 125 | > 125 | > 125 | 0.7563 | > 125 | > 125 | > 125 | > 125 | – | > 125 | 136 | 55.5 ± 6.2 | –
5 | CCNC(=S)N/N=C/c1ccc(Cl)c(Cl)c1 [Compound 3i, (E)-2-(3,4-Dichlorobenzylidene)-N-ethylhydrazinecarbothioamide] | > 500 | > 500 | > 500 | 0.8415 | > 500 | > 500 | > 500 | > 500 | – | > 500 | 280 | 48.5 ± 2.8 | –
6 | S=C(N/N=C/c1ccc(Cl)c(Cl)c1)Nc1ccccc1 [Compound 3j, (E)-2-(3,4-Dichlorobenzylidene)-N-phenylhydrazinecarbothioamide] | > 125 | > 125 | > 125 | 0.9774 | > 125 | > 125 | > 125 | > 125 | – | > 125 | 426 | > 60 | –
7 | CCNC(=S)N/N=C/c1ccc(Br)cc1 [Compound 3n, (E)-2-(4-Bromobenzylidene)-N-ethylhydrazinecarbothioamide] | > 500 | > 500 | > 500 | 0.7568 | > 500 | > 500 | > 500 | > 500 | > 60 | > 500 | – | – | –
8 | Oc1cccc2ccc(C=NNC(=S)Nc3ccccc3)nc12 [Compound 4h] | – | – | – | 0.7548 | – | – | – | – | 25 ± 4.29 | – | – | – | IC50 ([1]; Trichophyton mentagrophytes, 445, 72 h): > 125 µM; IC50 ([1]; Trichophyton mentagrophytes, 445, 120 h): > 125 µM; IC50 ([2]; Aspergillus fumigatus, 231, 24 h): > 125 µM; IC50 ([2]; Aspergillus fumigatus, 231, 48 h): > 125 µM; MIC ([3]; ATCC44859, 24 h): > 125 µM; MIC ([3]; ATCC44859, 48 h): > 125 µM; MIC (Candida krusei ATCC 6258; ATCC6258, 24 h): > 125 µM; MIC (Candida krusei ATCC 6258; ATCC6258, 48 h): > 125 µM; MIC (Candida tropicalis 156; Candida tropicalis, 156, 24 h): > 125 µM; MIC (Candida tropicalis 156; Candida tropicalis, 156, 48 h): > 125 µM; IC50 (Absidia corymbifera 272; Lichtheimia corymbifera, 272, 24 h): > 125 µM; IC50 (Absidia corymbifera 272; Lichtheimia corymbifera, 272, 48 h): > 125 µM; MIC (Candida glabrata 20/I; 24 h): > 125 µM; MIC (Candida glabrata 20/I; 48 h): > 125 µM; MIC ([6]; Trichosporon beigelii, 1188, 24 h): > 125 µM; MIC ([6]; Trichosporon beigelii, 1188, 48 h): > 125 µM
